One compound from BindingDB's records for patent US20250346571 (Xizang Haisco Pharmaceutical, 2025) can be followed below.

This assay addresses Poly [ADP-ribose] polymerase 1 (Homo sapiens, UniProt P09874). Briefly: PARP-1 Enzyme Activity Test Experiment. As for the experimental part: PARP-1 chemical […] detection kit was purchased from BPS Bioscience. The histone solution in the kit was diluted 5× with 1×PBS, and 25 μL of the diluted histone solution was added to a microwell plate and incubated overnight at 4° C. After the incubation, the plate was washed three times with PBST (0.05% Tween-20). 100 μL of the blocking solution was added to the microwell plate and incubated at 25° C. for 90 minutes. After the incubation was completed, the plate was washed three times with PBST. 2.5 μL of compounds at different concentrations diluted in test buffer and 12.5 μL of substrate mixed solution (1.25 μL 10×PARP test buffer; 1.25 μL 10×PARP test mixed solution; 2.5 μL Activated DNA, 7.5 μL double-distilled water) were added to the microwell plate. The PARP-1 enzyme was diluted to 2 ng/μL, […] was added to the microwell plate, and the reaction system was incubated at 25° C. for 60 minutes. After the incubation was completed, the plate was washed three times with PBST. Streptavidin-HRP was diluted 50× with a blocking solution, and 25 μL of the diluent was added to the microwell plate and incubated at 25° C. for 30 minutes. […] ELISA ECL substrate A and substrate B were uniformly mixed at a ratio of 1:1 (v/v), 50 μL of the mixture was added to the microwell plate, and the chemiluminescence value was read.

Poly [ADP-ribose] polymerase 1, sequence (P09874 whole entry): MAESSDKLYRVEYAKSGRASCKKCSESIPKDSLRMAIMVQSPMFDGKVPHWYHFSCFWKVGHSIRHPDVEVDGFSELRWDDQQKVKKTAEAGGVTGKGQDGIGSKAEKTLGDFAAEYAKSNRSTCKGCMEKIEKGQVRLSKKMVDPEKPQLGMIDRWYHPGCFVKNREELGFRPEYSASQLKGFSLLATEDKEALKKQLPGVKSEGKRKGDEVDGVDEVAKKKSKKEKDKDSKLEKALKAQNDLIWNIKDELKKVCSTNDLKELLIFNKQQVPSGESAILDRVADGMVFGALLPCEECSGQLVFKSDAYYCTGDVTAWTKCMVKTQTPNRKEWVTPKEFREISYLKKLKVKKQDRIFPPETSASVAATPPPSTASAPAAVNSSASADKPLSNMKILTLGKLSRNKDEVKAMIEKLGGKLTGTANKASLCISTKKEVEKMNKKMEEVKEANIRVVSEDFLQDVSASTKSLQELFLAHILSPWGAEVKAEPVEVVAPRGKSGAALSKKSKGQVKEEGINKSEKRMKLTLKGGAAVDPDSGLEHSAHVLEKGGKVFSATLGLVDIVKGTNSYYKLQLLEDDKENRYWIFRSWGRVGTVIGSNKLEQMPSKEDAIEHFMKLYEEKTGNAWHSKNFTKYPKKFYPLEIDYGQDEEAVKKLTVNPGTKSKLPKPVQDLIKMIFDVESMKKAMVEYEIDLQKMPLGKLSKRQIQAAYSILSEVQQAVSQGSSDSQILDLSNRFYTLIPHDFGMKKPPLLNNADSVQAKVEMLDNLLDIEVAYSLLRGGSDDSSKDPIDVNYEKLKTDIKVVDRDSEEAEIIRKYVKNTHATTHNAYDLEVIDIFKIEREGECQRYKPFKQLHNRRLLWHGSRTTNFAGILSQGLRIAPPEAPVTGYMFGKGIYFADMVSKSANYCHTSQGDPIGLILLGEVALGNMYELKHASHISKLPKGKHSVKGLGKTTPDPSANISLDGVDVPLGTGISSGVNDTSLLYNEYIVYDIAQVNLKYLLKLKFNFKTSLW

For `Cn1cc(NC(=O)c2ccc(N3CCN(Cc4ccc5nc(C(F)F)c(=O)[nH]c5c4F)CC3)c(F)n2)cn1` [US20250346571, Compound 15], the IC50 is less than 5 nM.
